The supplement of paper PMC10307832

Legend:
Test in all cases: relative viability (nuclei count vs DMSO), 5 days (fraction); higher = more cells survive
[1] = compound: OCc1c[nH]c2ccccc12 [Indole-3-carbinol] + Cc1nc(NC(=O)N2CCC[C@H]2C(N)=O)sc1-c1ccnc(C(C)(C)C(F)(F)F)c1 [Alpelisib] (partner 2 µM)
Summary of the method: (§1)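 Five library-drug doses in √10 steps were combined with a fixed anchor-drug dose, or a single drug was given alone, by pin tool to lung cancer cell lines in 1536-well plates the day after seeding. Nuclei were stained and counted after 5 days. Relative viability is the nuclei count in treated wells over that in vehicle wells, taken as the median of duplicate plates.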

[2] = compound: OCc1c[nH]c2ccccc12 [Indole-3-carbinol] + Nc1ncn([C@H]2C[C@H](O)[C@@H](CO)O2)c(=O)n1 [Decitabine] (partner 2 µM)
Summary of the method: as §1

[3] = compound: OCc1c[nH]c2ccccc12 [Indole-3-carbinol] + CCNC(=O)c1noc(-c2cc(C(C)C)c(O)cc2O)c1-c1ccc(CN2CCOCC2)cc1 [Luminespib] (partner 0.01 µM)
Summary of the method: as §1

[4] = compound: OCc1c[nH]c2ccccc12 [Indole-3-carbinol] + COc1cc2c(Oc3ccc(NC(=O)C4(C(=O)Nc5ccc(F)cc5)CC4)cc3F)ccnc2cc1OCCCN1CCOCC1 [Foretinib] (partner 0.25 µM)
Summary of the method: as §1

[5] = compound: OCc1c[nH]c2ccccc12 [Indole-3-carbinol] + COc1cccc2cc(-c3nc([C@H]4CC[C@H](C(=O)O)CC4)n4ncnc(N)c34)[nH]c12 [OSI-027] (partner 0.5 µM)
Summary of the method: as §1

Cell Line | relative viability ([1]; first compound 0.253 µM) | relative viability ([1]; first compound 0.8 µM) | relative viability ([1]; first compound 2.53 µM) | relative viability ([1]; first compound 8 µM) | relative viability ([2]; first compound 0.253 µM) | relative viability ([2]; first compound 0.8 µM) | relative viability ([2]; first compound 2.53 µM) | relative viability ([2]; first compound 8 µM) | relative viability ([3]; first compound 0.253 µM) | relative viability ([3]; first compound 0.8 µM) | relative viability ([3]; first compound 2.53 µM) | relative viability ([3]; first compound 8 µM) | relative viability ([4]; first compound 0.253 µM) | relative viability ([4]; first compound 0.8 µM) | relative viability ([4]; first compound 2.53 µM) | relative viability ([4]; first compound 8 µM) | relative viability ([5]; first compound 0.253 µM) | relative viability ([5]; first compound 0.8 µM) | relative viability ([5]; first compound 2.53 µM) | relative viability ([5]; first compound 8 µM)
EMC-BAC-2 | 0.715 | 0.731 | 0.741 | 0.665 | 0.953 | 0.96 | 0.957 | 0.889 | 1.2 | 1.23 | 1.09 | 1.06 | 1.02 | 1.01 | 0.917 | 0.923 | 0.32 | 0.356 | 0.386 | 0.359
NCI-H661 | 0.793 | 0.502 | 0.74 | 0.594 | 0.551 | 0.547 | 0.563 | 0.547 | 0.922 | 0.952 | 0.965 | 0.895 | 1.02 | 1.04 | 1.03 | 1.01 | 0.644 | 0.725 | 0.784 | 0.704
LU99A | 0.508 | 0.548 | 0.582 | 0.451 | 0.833 | 0.862 | 0.944 | 0.938 | 0.237 | 0.199 | 0.209 | 0.207 | 0.828 | 0.87 | 0.769 | 0.777 | 0.307 | 0.355 | 0.291 | 0.284
LK-2 | 1.11 | 1.02 | 1.25 | 1.05 | 0.308 | 0.231 | 0.374 | 0.327 | 0.214 | 0.203 | 0.229 | 0.181 | 1.39 | 1.2 | 1.42 | 1.07 | 0.198 | 0.145 | 0.189 | 0.215
NCI-H3122 | 0.878 | 0.879 | 0.855 | 0.74 | 0.462 | 0.414 | 0.37 | 0.451 | 0.0769 | 0.123 | 0.108 | 0.0975 | 0.972 | 0.962 | 0.999 | 0.961 | 0.967 | 1.08 | 1.02 | 0.948
NCI-H1563 | 0.905 | 0.997 | 0.921 | 0.885 |  |  |  |  | 0.454 | 0.494 | 0.512 | 0.495 | 0.865 | 0.799 | 0.914 | 0.859 | 0.733 | 0.748 | 0.747 | 0.791
IA-LM | 0.672 | 0.866 | 0.77 | 0.713 |  |  |  |  |  |  |  |  | 1.07 | 1.37 | 1.11 | 1.09 |  |  |  | 
ChaGo-K-1 |  |  |  |  | 0.523 | 0.55 | 0.525 | 0.519 | 0.649 | 0.658 | 0.576 | 0.557 | 0.955 | 0.941 | 0.872 | 0.894 | 0.56 | 0.543 | 0.605 | 0.567
NCI-H2342 |  |  |  |  | 0.822 | 0.743 | 0.765 | 0.765 | 0.867 | 0.759 | 0.752 | 0.74 | 1.12 | 1.04 | 1.06 | 0.999 | 0.605 | 0.585 | 0.569 | 0.572
CAL-12T | 1.04 | 1.61 | 1.47 | 1.17 |  |  |  |  | 0.393 | 0.533 | 0.592 | 0.767 | 1.13 | 1.17 | 1.01 | 1.09 | 0.709 | 0.775 | 0.62 | 0.623
NCI-H1792 | 0.713 | 0.68 | 0.77 | 0.673 | 0.569 | 0.603 | 0.506 | 0.489 | 0.416 | 0.484 | 0.368 | 0.398 |  |  |  |  | 0.733 | 0.695 | 0.726 | 0.692
HCC-366 | 0.505 | 0.264 | 0.48 | 0.381 | 0.384 | 0.335 | 0.369 | 0.335 |  |  |  |  | 0.959 | 0.861 | 0.902 | 0.926 | 0.954 | 0.777 | 0.898 | 0.881
HCC-44 | 0.788 | 0.845 | 0.851 | 0.773 | 0.983 | 0.986 | 0.971 | 0.91 | 1.04 | 0.812 | 1.1 | 0.942 |  |  |  |  | 0.488 | 0.412 | 0.484 | 0.525
NCI-H1703 | 0.3 | 0.4 | 0.322 | 0.332 |  |  |  |  |  |  |  |  | 0.342 | 0.376 | 0.309 | 0.326 |  |  |  | 
HCC-78 | 0.346 | 0.309 | 0.269 | 0.334 | 0.681 | 0.715 | 0.676 | 0.741 |  |  |  |  | 0.558 | 0.526 | 0.592 | 0.523 | 0.363 | 0.359 | 0.39 | 0.346
NCI-H522 |  |  |  |  | 0.698 | 0.699 | 0.803 | 0.689 | 1.17 | 1.05 | 1.1 | 0.949 |  |  |  |  | 0.646 | 0.821 | 0.685 | 0.836
SW 900 |  |  |  |  | 0.418 | 0.376 | 0.483 | 0.405 | 0.186 | 0.155 | 0.169 | 0.166 | 0.796 | 1.05 | 0.877 | 0.819 | 0.574 | 0.706 | 0.592 | 0.599
NCI-H2228 | 0.697 | 0.902 | 0.779 | 0.629 |  |  |  |  | 0.108 | 0.19 | 0.229 | 0.151 | 0.945 | 0.897 | 0.984 | 0.935 | 0.477 | 0.724 | 0.597 | 0.651
